The results in this text go back to ChEMBL document CHEMBL1201862, “PubChem BioAssay data set” (2004).

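Each compound was tested at five concentrations against cells in 96-well plates for 48 hours. GI50: concentration for 50% inhibition of growth.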 Calls of active or inactive are those of the source. Rule as the data show it: active = GI50 up to about 1.1 µM and inactive = higher.

Some test systems named below: CCRF-CEM; DLD-1; DMS-114; DMS-273; HCT-15; HOP-62; LXFL 529; MOLT-4; NCI-H226; OVCAR-3; SK-MEL-2; SK-MEL-5; TK-10; U-251; UACC-257; UACC-62; SN12C; DU-145; MCF7; XF498.
Common to all, as to experiment: NCI tumour cell line growth inhibition, 48 h

On to `COc1ccc(C(=O)OCC2OC(n3cnc4c(=S)nc[nH]c43)C(OC(=O)c3ccc(OC)cc3)C2OC(=O)c2ccc(OC)cc2)cc1` (stereo not drawn), for which the GI50 with CCRF-CEM is 8.47 µM (inactive); in the assay on DLD-1 it was 11.6 µM (inactive); in the assay with DMS-114, 5.65 µM (inactive); in the assay with DMS-273 it was 15 µM (inactive); with HCT-15, 47.2 µM; in the assay on HOP-62, 3.18 µM (inactive). Moreover, the GI50 in the assay with LXFL 529 was > 100 µM (inactive); in the assay with MOLT-4, 22.5 µM (inactive); in the assay on NCI-H226 it was 30.1 µM (inactive); in the assay with OVCAR-3, 5.06 µM (inactive); with SK-MEL-2 it was 12.8 µM (inactive); in the assay with SK-MEL-5 it was 69.2 µM (inactive). Also, the GI50 was 7.43 µM (inactive) in the assay on TK-10, > 100 µM (inactive) in the assay on U-251, 16.8 µM (inactive) in the assay on UACC-257 and 13.3 µM (inactive) in the assay with UACC-62.
With `O=C(O)CSc1ccc2nc3ccccc3c(O)c2c1`, the GI50 is > 100 µM (inactive) with CCRF-CEM; > 100 µM (inactive) with DLD-1; > 100 µM (inactive) with DMS-114; > 100 µM (inactive) with DMS-273; more than 100 µM in the assay with HCT-15; > 100 µM (inactive) in the assay with HOP-62. For the same compound, the GI50 in the assay with LXFL 529, in the assay with MOLT-4, in the assay with NCI-H226, in the assay with OVCAR-3, with SK-MEL-5 and with SN12C was > 100 µM (inactive) each time. For the same compound, the GI50 in the assay with TK-10, with U-251, in the assay on UACC-257 and in the assay on UACC-62 was > 100 µM (inactive) each time.
As to `Cc1ccc(S(=O)(=O)C2=c3ncccc3=C3C(=O)c4ccccc4C(=O)C32)cc1` (stereo not drawn), the GI50 was > 95.1 µM (inactive) in the assay on CCRF-CEM; < 0.01 µM (active) with DLD-1; 65 µM (inactive) in the assay with DMS-114; 26.5 µM (inactive) in the assay on DMS-273; > 100 µM (inactive) in the assay with DU-145; more than 10 µM in the assay on HCT-15. Further, the GI50 in the assay on HOP-62 is 4.71 µM (inactive); in the assay with LXFL 529, 83.8 µM (inactive); with MCF7 it was > 71.9 µM (inactive); in the assay with MOLT-4, > 100 µM (inactive); with NCI-H226 it was > 29.9 µM (inactive); with OVCAR-3, 55.8 µM (inactive). Further, the GI50 was 3.13 µM (inactive) with SK-MEL-2; 2.79 µM (inactive) in the assay on SK-MEL-5; > 100 µM (inactive) in the assay on SN12C; 8.65 µM (inactive) in the assay with TK-10; 57.7 µM (inactive) in the assay with U-251; 66.7 µM (inactive) with UACC-257. For the same compound, the GI50 in the assay with UACC-62 is 23 µM (inactive).
In the case of `COc1ccc(-c2ccc(CC(=O)O)cc2)cc1OC`, the GI50 with CCRF-CEM is > 100 µM (inactive); in the assay on DLD-1, > 100 µM (inactive); in the assay on DMS-114, > 100 µM (inactive); with HOP-62, 95.5 µM (inactive); in the assay on LXFL 529 it was > 100 µM (inactive); in the assay with MOLT-4, > 100 µM (inactive). The GI50 in the assay on NCI-H226, with OVCAR-3, in the assay on SK-MEL-2, in the assay with SK-MEL-5, in the assay with SN12C and in the assay on TK-10 was > 100 µM (inactive) each time. Besides, the GI50 in the assay with U-251 is > 100 µM (inactive); in the assay with UACC-257, > 100 µM (inactive); in the assay on UACC-62, > 100 µM (inactive); with XF498 it was 20.7 µM (inactive).
As for `O=S(O)c1cc(Cl)c(O)c(Cl)c1`, the GI50 in the assay with CCRF-CEM, with DLD-1, in the assay on DMS-114, with HOP-62, in the assay on LXFL 529 and in the assay with MOLT-4 was > 100 µM (inactive) each time. In addition, the GI50 in the assay with OVCAR-3, in the assay on SK-MEL-2, in the assay on SN12C, in the assay on TK-10, in the assay with U-251 and in the assay on UACC-257 was > 100 µM (inactive) in each case. Moreover, the GI50 in the assay with UACC-62 and with XF498 was > 100 µM (inactive) each time.
Take `COc1cc2c(cc1OC)C(=O)Cc1ccc3c(c1CNCC2)OCO3`: the GI50 in the assay on CCRF-CEM is > 100 µM (inactive); with DLD-1 it was > 100 µM (inactive); with DMS-114, > 100 µM (inactive); in the assay with HCT-15, more than 100 µM; in the assay on HOP-62, > 100 µM (inactive); in the assay on LXFL 529 it was > 100 µM (inactive). In addition, the GI50 with MOLT-4, in the assay on OVCAR-3, in the assay on SK-MEL-2, in the assay on SK-MEL-5, in the assay with SN12C and in the assay on TK-10 was > 100 µM (inactive) throughout. Further, the GI50 with U-251, in the assay with UACC-257, in the assay on UACC-62 and in the assay on XF498 was > 100 µM (inactive) in each case.
As to `CC(C)c1cccc2sc(NC(=O)C(=O)C(C#N)c3cccc4ccccc34)nc12` (stereo not drawn), the GI50 in the assay on CCRF-CEM is 41.8 µM (inactive); in the assay on DLD-1, 98.6 µM (inactive); with DMS-114, 40.4 µM (inactive); with DMS-273, 90.4 µM (inactive); in the assay on HCT-15 it was 75.5 µM; with HOP-62, 99.8 µM (inactive). For the same compound, the GI50 is 73.1 µM (inactive) in the assay with LXFL 529; 23.1 µM (inactive) with MOLT-4; 71.1 µM (inactive) in the assay on NCI-H226; 41.7 µM (inactive) in the assay on OVCAR-3; 45.2 µM (inactive) with SK-MEL-2; 68.1 µM (inactive) in the assay with SK-MEL-5. Also, the GI50 in the assay with SN12C was > 100 µM (inactive); with TK-10 it was > 100 µM (inactive); in the assay on U-251, 57.5 µM (inactive); in the assay on UACC-257, 92.3 µM (inactive); in the assay with UACC-62, 57.4 µM (inactive).
Consider `CCC1CN2CCC3(c4ccccc4)CC(C(=O)OC)=CC1C23` (stereo not drawn), for which the GI50 was > 100 µM (inactive) with CCRF-CEM; 17.2 µM (inactive) in the assay with DLD-1; 17.6 µM in the assay on HCT-15; 19.2 µM (inactive) in the assay on HOP-62; 15.4 µM (inactive) in the assay on LXFL 529; 49.2 µM (inactive) with MOLT-4. Moreover, the GI50 in the assay on NCI-H226 is 17 µM (inactive); in the assay with OVCAR-3 it was 19.2 µM (inactive); in the assay on SK-MEL-5 it was 16.4 µM (inactive); in the assay with SN12C, 16.1 µM (inactive); in the assay with TK-10, 25.4 µM (inactive); in the assay with U-251 it was 16.3 µM (inactive). Also, the values for the GI50 with UACC-257, with UACC-62 and with XF498 were 16.4 µM (inactive), 15.9 µM (inactive) and 0.183 µM (active), respectively.
Take `CN(C)c1ccc(/C=C/C(=O)C(C)(C)C)cc1Br`: the GI50 in the assay on CCRF-CEM was 24.6 µM (inactive); with DLD-1, 18.7 µM (inactive); with DMS-114 it was 18.5 µM (inactive); in the assay on HCT-15, 19.9 µM; in the assay with HOP-62, 63.5 µM (inactive); in the assay with LXFL 529, 30 µM (inactive). Also, the GI50 in the assay with MOLT-4 was 21.2 µM (inactive); in the assay with OVCAR-3 it was 33.3 µM (inactive); in the assay with SK-MEL-2, 18.9 µM (inactive); in the assay with SK-MEL-5 it was 18.7 µM (inactive); with SN12C, 24.9 µM (inactive); in the assay with TK-10, 30.8 µM (inactive). Further, the GI50 in the assay on U-251 was 27.4 µM (inactive); with UACC-257 it was 24 µM (inactive); in the assay with UACC-62 it was 16.7 µM (inactive); in the assay with XF498, 15 µM (inactive).
For `CC(C)c1cccc(C(C)C)c1NC(=O)C(=O)C1CCC2=C(Sc3ccccc3N2)C1=O` (stereo not drawn), the GI50 in the assay with CCRF-CEM was 24 µM (inactive); with DLD-1, > 100 µM (inactive); in the assay with DMS-114, 52.8 µM (inactive); in the assay on DMS-273 it was 40.5 µM (inactive); with HCT-15, 61.7 µM; in the assay on HOP-62, > 100 µM (inactive). Also, the GI50 with LXFL 529 was 44.2 µM (inactive); in the assay on MOLT-4 it was 43.7 µM (inactive); in the assay on NCI-H226, 29.4 µM (inactive); with OVCAR-3, > 100 µM (inactive); in the assay on SK-MEL-2, > 100 µM (inactive); with SK-MEL-5, 56.2 µM (inactive). In addition, the GI50 with SN12C is 28.8 µM (inactive); with TK-10, > 100 µM (inactive); in the assay with U-251 it was 34.8 µM (inactive); in the assay with UACC-257 it was 67.3 µM (inactive); with UACC-62, > 100 µM (inactive).
Take `NC1=NN(c2ccccc2)C(=O)C1C(=O)C(=O)Nc1ccc(Cl)cc1` (stereo not drawn): the GI50 in the assay on CCRF-CEM is > 100 µM (inactive); with DLD-1, > 100 µM (inactive); in the assay on DMS-114, > 100 µM (inactive); in the assay with DMS-273, > 100 µM (inactive); in the assay on HCT-15 it was more than 100 µM; with HOP-62 it was > 100 µM (inactive). For the same compound, the GI50 with LXFL 529, in the assay on MOLT-4, in the assay on NCI-H226, in the assay on OVCAR-3, with SK-MEL-2 and in the assay with SK-MEL-5 was > 100 µM (inactive) throughout. Moreover, the GI50 with SN12C, with TK-10, in the assay with U-251, in the assay with UACC-257 and in the assay on UACC-62 was > 100 µM (inactive) throughout.
As to `Cc1ccc2[nH]c3c(C)c4cc[n+](C)cc4c(C)c3c2c1`, the GI50 in the assay with CCRF-CEM is 3.06 µM (inactive); in the assay on DLD-1 it was 1.67 µM (inactive); with DMS-114 it was 0.61 µM (active); in the assay on DMS-273 it was 2.33 µM (inactive); with DU-145 it was 0.628 µM (active); in the assay with HCT-15, 14.1 µM. Moreover, the GI50 in the assay on HOP-62 was 0.774 µM (active); with LXFL 529 it was 0.743 µM (active); in the assay on MCF7, 1.95 µM (inactive); with MOLT-4 it was 5.87 µM (inactive); in the assay on NCI-H226, 0.74 µM (active); in the assay on OVCAR-3, 2.84 µM (inactive). The GI50 with SK-MEL-2 is 1.7 µM (inactive); in the assay with SK-MEL-5 it was 1.65 µM (inactive); with SN12C it was 0.271 µM (active); with TK-10, 5.42 µM (inactive); in the assay with U-251, 0.41 µM (active); with UACC-257, 3.71 µM (inactive). Also, the GI50 in the assay with UACC-62 was 2.68 µM (inactive).
